Marks after values point to notes of the source that are not given here.
Experiments:
[1] = tested on: mice injected with ellagic acid via the tail vein; test: Effect on in vivo clotting time in mice (ellagic acid tail vein injection); conditions: Mus musculus, iv, 100 mg/kg i.g. for 4 days, ellagic acid i.v. 1 h after last dose, vs model group, read-out: Clotting time prolongation (%)
Protocol: The control and model groups were gavaged with distilled water, and the positive clopidogrel group, and the test substance group were gavaged orally (i.g.) with drug solution in a volume of 0.1 mL/10 g for 4 consecutive days. 1 h after the last administration, all groups were injected with 0.15 mL/10 g of 0.3% ellagic acid solution via tail vein injection except for the blank group which was injected with physiological saline: 0.1 ml/10 g. After 5 min, glass capillaries were used for blood collection through the retro-orbital venous plexus, and the appearance time of coagulation filaments was recorded by glass capillaries at 10-second intervals.
Calculation equation for prolongation of clotting time:
Prolongation of clotting time (%)=[(mean value of clotting time in blank or administered group/mean value of clotting time in model group)−1]×100%

ICR mice = test: Effect on in vivo bleeding time in mice (tail cut); conditions: 100 mg/kg i.g. once daily for 4 days
Protocol: A normal control group (blank), positive control group (clopidogrel) and experimental groups were set up with 10 ICR mice (male, weighed about 25 g) in each group. Animals in each group were administered the corresponding drug solution by oral gavage (i.g.) at 0.1 ml/10 g body weight, and the blank control group was given distilled water, once daily for 4 days. On the 4th day, 1 h after the administration of the drug, the animals were anesthetized by intraperitoneal injection of sodium barbiturate at a dose of about 50 mg/kg, and 20 min later, the tails of the mice were cut at a distance of 3 mm from the tip of the tail, and at regular intervals, absorbent paper was used to dip the blood at the severed tails until no blood exuded, which was recorded as the bleeding time, and the results of the experiment were shown in Table 2.
Calculation equation for prolongation of bleeding time: […]

[2] = tested on: rats with focal permanent cerebral ischemia (MCAO); test: Focal permanent cerebral ischemic injury (MCAO), administration from 3 h post-ischemia; type: in vivo, SD rats; conditions: for Number of survivors after 15 days animal: 15 enrolled; for Mortality (%): 15-day; for Neurological function score on day 15: Bederson's method; for Weight on day 1 / Weight on day 5 / Weight on day 15: mean body weight
[3] = tested on: rats with myocardial ischemia-reperfusion injury; test: Myocardial ischemia-reperfusion injury caused by coronary artery ligation in rats; type: in vivo; conditions: x ± s, n = 8; for Pathological Score: myocardium
Protocol: Experimental Methods: A model of myocardial ischemia/reperfusion (MI/R) injury caused by coronary artery ligation was established in rats, and animals were grouped into high-dose (20 mg/kg), medium-dose (10 mg/kg), low-dose (5 mg/kg) of the test drug, clopidogrel (7.5 mg/kg), sham, and model groups. Equal volume of 0.5% CMC-Na was administered at 0.5 ml/100 g body weight in both sham and model groups. The drug was administered by gavage (i.g.) once a day for 5 consecutive days. Modeling was performed 30 min after the last administration, and after modeling, 8 successfully modeled rats were selected from each group for subsequent experiments. The sham group was placed a wire under the left anterior descending branch of the coronary artery according to the model preparation method without ligation, and the other groups were modeled according to the model preparation method. The effects of the test drugs on the cardiac infarction rate and the biochemical indexes of creatine kinase (CK), lactate dehydrogenase (LDH), malondialdehyde (MDA), and superoxide dismutase (SOD) in plasma were detected, and TTC staining of the heart was performed to detect the effects of the test drugs on the area of myocardial infarction in MI/R rats.

[4] = tested on: acute inflammatory response caused by ellagic acid (serum cytokines); test: Antibody microarray detection of serum factors in ellagic acid model mice; type: in vivo, ICR mice; parameters: TNFa / IL-6 / IL-1b / IL-5 / IL-13 / IL-1α / IL-1β / IL-2 / IL-3 / IL-4 / IFNg / CD40: unit not given here
Protocol: Experimental methods: ICR male mice, weighed about 25 g, were randomly divided into four groups: normal group, ellagic acid model group, 1-1 group, and 1-22 group, with four mice in each group. Mice in 1-1 group and 1-22 group were given 1-1, 100 mg/kg and 1-22, 100 mg/kg by gavage once a day respectively. 1 h after the third administration, except for the normal control group, the other three groups of mice were injected into the tail vein with 0.10 mL/10 g of 0.3% ellagic acid saline solution, and 1 h after injection, whole blood was collected from each animal, and centrifuged (3,000 rpm/min) for 10 min after 30 min of standing, and then centrifuged to obtain the serum. The serum from each group of animal was mixed in an EP tube, transported at −80° C., and sent for antibody microarray detection.

[5] = middle and high dose groups compared with the model group
[6] = Table 16, pooled serum, 100 mg/kg by gavage
[7] = Table 17, pooled serum, 100 mg/kg by gavage
[8] = Table 18, pooled serum, 100 mg/kg by gavage
[9] = Table 19, pooled serum, 100 mg/kg by gavage

SMILES: CCOC(=O)CCNC(=O)CCNc1cc(=O)n(C)c(=O)n1C [Compound 1-1]
- change in vivo at 100 mg/kg [1]: 43.3%
- Bleeding time prolongation (%) (ICR mice): −8.89%
- Number of survivors after 15 days animal ([2]; 10 mg/kg by gavage once a day): 8
- Number of survivors after 15 days animal ([2]; 20 mg/kg by gavage once a day): 11
- Number of survivors after 15 days animal ([2]; 40 mg/kg by gavage once a day): 10
- Mortality (%) ([2]; 10 mg/kg by gavage): 46.67%
- Mortality (%) ([2]; 20 mg/kg by gavage): 26.67%
- Mortality (%) ([2]; 40 mg/kg by gavage): 33.33%
- Neurological function score on day 15 ([2]; 10 mg/kg): 0.88
- Neurological function score on day 15 ([2]; 20 mg/kg): 0.75
- Neurological function score on day 15 ([2]; 40 mg/kg): 0.5
- Weight on day 1 ([2]; 10 mg/kg): 273.73 g
- Weight on day 5 ([2]; 10 mg/kg): 240.73 g
- Weight on day 15 ([2]; 10 mg/kg): 281.38 g
- Weight on day 1 ([2]; 20 mg/kg): 281.93 g
- Weight on day 5 ([2]; 20 mg/kg): 253.67 g
- Weight on day 15 ([2]; 20 mg/kg): 281.10 g
- Weight on day 1 ([2]; 40 mg/kg): 274.93 g
- Weight on day 5 ([2]; 40 mg/kg): 288.25 g
- Weight on day 15 ([2]; 40 mg/kg): 316.80 g
- infarction rate (TTC staining) [2, 5]: significantly reduced
- water content [2, 5]: significantly reduced
- Cardiac infarction rate (%) ([3]; 5 mg/kg i.g. once a day for 5 days): 12.12 ± 4.45 %
- Cardiac infarction rate (%) ([3]; 10 mg/kg i.g. once a day for 5 days): 10.99 ± 2.39 %
- Cardiac infarction rate (%) ([3]; 20 mg/kg i.g. once a day for 5 days): 7.27 ± 1.91**^ΔΔ %
- Pathological Score ([3]; 5 mg/kg i.g.): 2.00 ± 0.53
- Pathological Score ([3]; 10 mg/kg i.g.): 1.88 ± 0.83
- Pathological Score ([3]; 20 mg/kg i.g.): 1.75 ± 0.71
- CK (U/mL) ([3]; plasma, 5 mg/kg i.g.): 0.33 ± 0.15 U/mL
- LDH (U/L) ([3]; plasma, 5 mg/kg i.g.): 5406.70 ± 458.93*^ΔΔ U/L
- MDA ([3]; plasma, 5 mg/kg i.g.): 13.23 ± 2.89 nmol/mL
- SOD (U/mL) ([3]; plasma, 5 mg/kg i.g.): 28.29 ± 1.24 U/mL
- CK (U/mL) ([3]; plasma, 10 mg/kg i.g.): 0.27 ± 0.11 U/mL
- LDH (U/L) ([3]; plasma, 10 mg/kg i.g.): 3732.06 ± 573.02**^ΔΔ U/L
- MDA (nmol/mL) ([3]; plasma, 10 mg/kg i.g.): 5.47 ± 1.71**^ΔΔ nmol/mL
- SOD (U/mL) ([3]; plasma, 10 mg/kg i.g.): 23.99 ± 2.80 U/mL
- CK (U/mL) ([3]; plasma, 20 mg/kg i.g.): 0.08 ± 0.047 U/mL
- LDH (U/L) ([3]; plasma, 20 mg/kg i.g.): 4366.03 ± 782.76**^ΔΔ U/L
- MDA (nmol/mL) ([3]; plasma, 20 mg/kg i.g.): 8.77 ± 2.19**^ΔΔ nmol/mL
- SOD (U/mL) ([3]; plasma, 20 mg/kg i.g.): 41.02 ± 2.33 U/mL
- IL-6 [4, 6]: 18,375.64*
- RANTES/ccl5 [4, 6]: 2,825.89*
- TNFa [4, 6]: 386.79
- IL-1b ([4]; Table 16, pooled serum, 100 mg/kg by gavage once a day x3, 1 h after ellagic acid): 312.69
- IL-1α [4, 7]: 1,118.99*
- IL-1β [4, 7]: 312.69
- IL-2 [4, 7]: 565.56
- IL-3 [4, 7]: 1,106.55
- IL-4 [4, 7]: 1,367.20
- IL-5 [4, 7]: 285.74*
- IL-6 [4, 7]: 18,375.64*
- IL-13 [4, 7]: 800.30*
- Eotaxin/CCL11 [4, 8]: 4,696.55
- MCP1/CCL2 [4, 8]: 3,045.61
- MIP-3a/CCL20 [4, 8]: 1,505.55*
- RANTES/CCL5 [4, 8]: 2,825.89*
- CD40 [4, 9]: 639.15
- IFNg [4, 9]: 295.07*
- number of down-regulated differential proteins ([4]; interleukin factors (Table 17), compared with the model group): four
